According to PubChem BioAssay AID304 (DTP/NCI, 2004):
“And” between values parts separate entries of the source, which are not always exact repeats. Equal entries are not always repeated. Toxic doses and inconclusive results are not listed.

Tested on: Lymphosarcoma Mecca ip in C3AKF1 mice, survival T/C%
Experiment: NCI In Vivo Anticancer Drug Screen. Data for tumor model Lymphosarcoma Mecca (intraperitoneal) in C3AKF1 (CHKRF1) mice
Conditions: endpoint: survival time, mean or median, higher = longer survival
Procedure: The antitumor activity of compounds was measured in mice bearing transplantable tumors. Survival or tumor size were measured and the results are expressed as the measurement made in the treated group (T) divided by the measurement made in the vehicle treated control group (C). The tumor model used in this assay is Lymphosarcoma Mecca (intraperitoneal) in C3AKF1 (CHKRF1) mice

[1] = dose: 6.25 mg/kg/injection, schedule: Q01DX010 (ip), vehicle: saline
[2] = dose: 12.5 mg/kg/injection, schedule: Q01DX010 (ip), vehicle: saline
[3] = dose: 25.0 mg/kg/injection, schedule: Q01DX010 (ip), vehicle: saline
[4] = dose: 50.0 mg/kg/injection, schedule: Q01DX010 (ip), vehicle: saline
[5] = dose: 5.0 mg/kg/injection, schedule: Q01DX010 (ip), vehicle: saline
[6] = dose: 10.0 mg/kg/injection, schedule: Q01DX010 (ip), vehicle: saline
[7] = dose: 20.0 mg/kg/injection, schedule: Q01DX010 (ip), vehicle: saline
[8] = dose: 0.13 mg/kg/injection, schedule: Q01DX010 (ip), vehicle: saline
[9] = dose: 0.5 mg/kg/injection, schedule: Q01DX010 (ip), vehicle: saline
[10] = dose: 1.0 mg/kg/injection, schedule: Q01DX010 (ip), vehicle: saline
[11] = dose: 100.0 mg/kg/injection, schedule: Q01DX010 (ip), vehicle: saline
[12] = dose: 2.5 mg/kg/injection, schedule: Q01DX010 (ip), vehicle: saline
[13] = dose: 3.13 mg/kg/injection, schedule: Q01DX010 (ip), vehicle: saline
[14] = dose: 80.0 mg/kg/injection, schedule: Q01DX010 (ip), vehicle: saline
[15] = dose: 62.5 mg/kg/injection, schedule: Q01DX010 (ip), vehicle: saline
[16] = dose: 125.0 mg/kg/injection, schedule: Q01DX010 (ip), vehicle: saline
[17] = dose: 250.0 mg/kg/injection, schedule: Q01DX010 (ip), vehicle: saline
[18] = dose: 8.0 mg/kg/injection, schedule: Q01DX010 (ip), vehicle: saline
[19] = dose: 16.0 mg/kg/injection, schedule: Q01DX010 (ip), vehicle: saline
[20] = dose: 2.0 mg/kg/injection, schedule: Q01DX010 (ip), vehicle: saline
[21] = dose: 4.0 mg/kg/injection, schedule: Q01DX010 (ip), vehicle: saline
[22] = dose: 18.8 mg/kg/injection, schedule: Q01DX010 (ip), vehicle: saline
[23] = dose: 37.5 mg/kg/injection, schedule: Q01DX010 (ip), vehicle: saline
[24] = dose: 75.0 mg/kg/injection, schedule: Q01DX010 (ip), vehicle: saline
[25] = dose: 31.3 mg/kg/injection, schedule: Q01DX010 (ip), vehicle: saline
[26] = dose: 1.25 mg/kg/injection, schedule: Q01DX010 (ip), vehicle: saline
[27] = dose: 6.0 mg/kg/injection, schedule: Q01DX010 (ip), vehicle: saline
[28] = dose: 12.0 mg/kg/injection, schedule: Q01DX010 (ip), vehicle: saline

## CS(=O)(=O)OCCCCOS(C)(=O)=O
[1]
  T/C: 86 % of control and 100 % of control
[2]
  T/C: 100 % of control
[3]
  T/C: 90 % of control
[4]
  T/C: 95 % of control

## C[C@@H]1C[C@@H]([C@H](O)CC2CC(=O)NC(=O)C2)C(=O)[C@@H](C)C1
[5]
  T/C: 109 % of control
[6]
  T/C: 100 % of control and 113 % of control
[7]
  T/C: 95 % of control

## CC(=O)NC1=C(N2CC2)C(=O)C(NC(C)=O)=C(N2CC2)C1=O
[8]
  T/C: 109 % of control
[9]
  T/C: 177 % of control and 188 % of control
[10]
  T/C: 109 % of control and 111 % of control

## CS(=O)(=O)OCC(O)C(O)C(O)C(O)COS(C)(=O)=O (stereo not drawn)
[3]
  T/C: 111 % of control
[4]
  T/C: 100 % of control and 111 % of control
[11]
  T/C: 100 % of control and 116 % of control
dose: 200.0 mg/kg/injection, schedule: Q01DX010 (ip), vehicle: saline
  T/C: 100 % of control and 122 % of control
dose: 400.0 mg/kg/injection, schedule: Q01DX010 (ip), vehicle: saline
  T/C: 110 % of control

## O=c1[nH]cc(F)c(=O)[nH]1
[12]
  T/C: 100 % of control
[5]
  T/C: 110 % of control
[7]
  T/C: 155 % of control

## O=[n+]1c2c(n([O-])c3ccccc31)-c1cccc3cccc-2c13
[13]
  T/C: 100 % of control
[2]
  T/C: 88 % of control
[3]
  T/C: 90 % of control

## Oc1cc(CN(CCCl)CCCl)c(O)cc1CN(CCCl)CCCl
dose: 0.63 mg/kg/injection, schedule: Q01DX010 (ip), vehicle: saline
  T/C: 120 % of control

## O=c1[nH]c(=O)n(C2CC(O)C(CO)O2)cc1F (stereo not drawn)
[5]
  T/C: 100 % of control
[6]
  T/C: 109 % of control and 115 % of control
[7]
  T/C: 113 % of control and 120 % of control
[14]
  T/C: 159 % of control

## Cc1cn(C2OC(CO)C(O)C2O)c(=O)[nH]c1=O (stereo not drawn)
[15]
  T/C: 105 % of control
[16]
  T/C: 111 % of control
[17]
  T/C: 105 % of control
dose: 500.0 mg/kg/injection, schedule: Q01DX010 (ip), vehicle: saline
  T/C: 111 % of control

## CN(C)[C@@H]1C(=O)C(C(N)=O)=C(O)[C@@]2(O)C(=O)C3=C(O)c4c(O)cccc4C[C@H]3C[C@@H]12
dose: 3.75 mg/kg/injection, schedule: Q01DX010 (ip), vehicle: saline
  T/C: 100 % of control
dose: 7.5 mg/kg/injection, schedule: Q01DX010 (ip), vehicle: saline
  T/C: 100 % of control
dose: 15.0 mg/kg/injection, schedule: Q01DX010 (ip), vehicle: saline
  T/C: 100 % of control
dose: 30.0 mg/kg/injection, schedule: Q01DX010 (ip), vehicle: saline
  T/C: 90 % of control and 94 % of control

## C[C@]12C=CC(=O)C=C1CC[C@@H]1[C@@H]2[C@@H](O)C[C@@]2(C)[C@H]1CC[C@]2(O)C(=O)CO
dose: 12.5 mg/kg/injection, schedule: Q01DX010 (sc), vehicle: steriod suspending solution
  T/C: 86 % of control
dose: 25.0 mg/kg/injection, schedule: Q01DX010 (sc), vehicle: steriod suspending solution
  T/C: 100 % of control
dose: 50.0 mg/kg/injection, schedule: Q01DX010 (sc), vehicle: steriod suspending solution
  T/C: 160 % of control
dose: 100.0 mg/kg/injection, schedule: Q01DX010 (sc), vehicle: steriod suspending solution
  T/C: 115 % of control

## COc1cc(-c2ccc(Nc3ccccc3C(=O)O)c(OC)c2)ccc1N
[6]
  T/C: 105 % of control and 110 % of control
[7]
  T/C: 111 % of control and 115 % of control
dose: 40.0 mg/kg/injection, schedule: Q01DX010 (ip), vehicle: saline
  T/C: 122 % of control
[14]
  T/C: 111 % of control

## O=C(Nc1ccc(C2=NCCN2)cc1)c1cccc(C(=O)Nc2ccc(C3=NCCN3)cc2)c1
[18]
  T/C: 113 % of control
[19]
  T/C: 110 % of control and 205 % of control
dose: 64.0 mg/kg/injection, schedule: Q01DX010 (ip), vehicle: saline
  T/C: 175 % of control

## S=P(N1CC1)(N1CC1)N1CC1
[10]
  T/C: 270 % of control
[20]
  T/C: 90 % of control
[21]
  T/C: 109 % of control

## CN(C)c1nc(N(C)C)nc(N(C)C)n1
[22]
  T/C: 105 % of control
[23]
  T/C: 100 % of control
[24]
  T/C: 100 % of control and 111 % of control
dose: 150.0 mg/kg/injection, schedule: Q01DX010 (ip), vehicle: saline
  T/C: 105 % of control and 111 % of control

## C[C@H]1C(=O)O[C@@H]2CCN3CC=C(COC(=O)[C@](C)(O)[C@@]1(C)O)[C@H]23
[13]
  T/C: 109 % of control and 115 % of control
[1]
  T/C: 95 % of control and 109 % of control
[2]
  T/C: 105 % of control and 118 % of control
[3]
  T/C: 109 % of control and 115 % of control

## C1CN1c1nc(N2CC2)nc(N2CC2)n1
[8]
  T/C: 180 % of control
dose: 0.25 mg/kg/injection, schedule: Q01DX010 (ip), vehicle: saline
  T/C: 152 % of control
[9]
  T/C: 96 % of control
[10]
  T/C: 95 % of control

## COc1ccc2c(c1OC)C(=O)O[C@@H]2[C@H]1c2c(cc3c(c2OC)OCO3)CCN1C
[25]
  T/C: 100 % of control and 105 % of control
[15]
  T/C: 100 % of control and 116 % of control
[16]
  T/C: 100 % of control and 116 % of control
[17]
  T/C: 94 % of control and 100 % of control

## CO[C@@H]1[C@@H](OC2OC(C)C(OC3CC(C)(O)C(OC(=O)CC(C)C)C(C)O3)C(N(C)C)C2O)[C@@H](CC=O)C[C@@H](C)C(=O)/C=C/C2O[C@H]2C[C@@H](C)OC(=O)C[C@H]1OC(C)=O (stereo partly drawn)
dose: 4.7 mg/kg/injection, schedule: Q01DX010 (ip), vehicle: saline
  T/C: 90 % of control
dose: 9.4 mg/kg/injection, schedule: Q01DX010 (ip), vehicle: saline
  T/C: 100 % of control
[22]
  T/C: 90 % of control
[23]
  T/C: 90 % of control and 95 % of control
[24]
  T/C: 86 % of control

## CCCSc1ncnc2nc[nH]c12
[25]
  T/C: 105 % of control and 111 % of control
[15]
  T/C: 105 % of control and 111 % of control
[16]
  T/C: 105 % of control
[17]
  T/C: 88 % of control

## CCOC(=O)NP(=O)(N1CC1)N1CC1
[12]
  T/C: 111 % of control and 116 % of control
[5]
  T/C: 116 % of control and 122 % of control
[6]
  T/C: 122 % of control

## CC[n+]1c(-c2ccccc2)c2cc(N)ccc2c2ccc(N)cc21
[26]
  T/C: 100 % of control
[12]
  T/C: 100 % of control and 120 % of control
[5]
  T/C: 100 % of control
[6]
  T/C: 105 % of control and 120 % of control
[7]
  T/C: 105 % of control

## CC(CCC(C)OS(C)(=O)=O)OS(C)(=O)=O (stereo not drawn)
[21]
  T/C: 109 % of control
[18]
  T/C: 100 % of control
[19]
  T/C: 114 % of control
dose: 32.0 mg/kg/injection, schedule: Q01DX010 (ip), vehicle: saline
  T/C: 95 % of control

## O=C(O)c1[nH]c(=O)[nH]c(=O)c1F
[26]
  T/C: 100 % of control
[12]
  T/C: 88 % of control and 122 % of control
[7]
  T/C: 122 % of control

## COCCCNP(=S)(N1CC1)N1CC1
[9]
  T/C: 100 % of control
[10]
  T/C: 100 % of control
[20]
  T/C: 100 % of control
[21]
  T/C: 105 % of control

## CS(=O)(=O)OCCC(=O)N1CCN(C(=O)CCOS(C)(=O)=O)CC1
[2]
  T/C: 120 % of control
[3]
  T/C: 105 % of control and 110 % of control
[11]
  T/C: 160 % of control

## CCN(CC)CCNc1ccc(C)c2sc3ccccc3c(=O)c12
[3]
  T/C: 116 % of control and 122 % of control
[4]
  T/C: 105 % of control
[11]
  T/C: 111 % of control

## O=NN(CCCl)C(=O)NCCCl
[1]
  T/C: 275 % of control and 303 % of control
[2]
  T/C: 151 % of control and 155 % of control
[3]
  T/C: 92 % of control and 115 % of control

## Nc1ncnc2[nH]ncc12
dose: 1.5 mg/kg/injection, schedule: Q01DX010 (ip), vehicle: saline
  T/C: 105 % of control
dose: 3.0 mg/kg/injection, schedule: Q01DX010 (ip), vehicle: saline
  T/C: 111 % of control and 115 % of control
[27]
  T/C: 95 % of control
[28]
  T/C: 95 % of control

## O=C(Nc1ccc(C2=NCCN2)cc1)c1ccc(C(=O)Nc2ccc(C3=NCCN3)cc2)c([N+](=O)[O-])c1
[27]
  T/C: 116 % of control
[18]
  T/C: 116 % of control
[28]
  T/C: 116 % of control
